Assay results published in PubChem BioAssay AID2060499 (Molecular Pharmacology Branch, DTP, NCI, 2025).

Test system: 777334-354-R2-J4-PDC tumor spheroids with HUVEC/MSC, viability
Experiment: Anticancer human tumor 777334-354-R2-J4-PDC patient-derived pancreatic adenocarcinoma cell line growth inhibition [GQUAD]
Conditions: for IC50: curve of first compound; for viability, T/C: stronger effect = lower value
Source text: DNA G-quadruplex Stabilizer Agents in Combinations in Complex Spheroids
A high-throughput screen of multi-cell type tumor spheroids was designed to identify active combinations of DNA G-quadruplex stabilizer agents and targeted small molecules. Complex spheroids include a stromal component modeled by human endothelial cells (HUVEC) and fibroblasts modeled by human mesenchymal stem cells (MSCs). The concentration ranges selected for each drug and investigational agent were based upon clinically achievable concentrations if the clinical Cmax of the agent was known.
Compounds. The drugs and investigational agents: pidnarulex (CX-5461; NSC782164), APTO-253 (NSC789042), BRACO-19 (NSC847499), peposertib (NSC802822), ceralasertib (NSC780249), elimusertib (NSC800525), camonsertib (NSC841442), AZD-1390 (NSC803789), olaparib (NSC753686), talazoparib (NSC767125), ART-558 (NSC835418), sotorasib (NSC818433), MRTX-1133 (NSC836407), SN-38 (NSC673596), topotecan (NSC609699), etoposide (NSC141540), doxorubicin (NSC123127), gemcitabine (NSC613327), 5-fluorouracil (NSC19893), paclitaxel (NSC125973), vemurafenib (NSC761431), panobinostat (NSC761190), R-306465 (JNJ-16241199; NSC773264), adavosertib (NSC754352), TP-3654 (NSC805149), carboplatin (NSC241240), KSQ-4279 (NSC840948), and staurosporine (NSC755774) were obtained from the National Cancer Institute (NCI) Developmental Therapeutics Program Chemical Repository (34). The FDA-approved anticancer drug set is available from the NCI Developmental Therapeutics Program. […] The stock solutions were prepared in dimethyl sulfoxide (DMSO, Sigma-Aldrich, St. Louis, MO, cat. D2650) at 800-fold the tested concentration and stored at -70 degrees C prior to their use. All drugs and investigational agents were tested over a range starting from a high concentration at or near the clinical Cmax and decreasing in half-log increments. If the clinical Cmax for an agent had not been determined, the highest concentration tested was 10 microM.
2.3 Cell Culture. All cells were maintained in an incubator at 37 degrees C and 5% CO2 with 95% humidity. The PDC lines were cultured according to standard operating procedures established by the NCI PDMR. All PDCs were thawed and cultured in Matrigel-coated flasks prepared with a working solution of 1X Ham's F-12 nutrient mix, without supplementation (Invitrogen, cat. 11765054), 100 U/mL penicillin-streptomycin (Invitrogen, cat. 15140122), and 2.5% Matrigel (Corning Inc., cat. 354248) for the first three passages. The 857933-349-R-J2-PDC line was cultured in 6C/Colon 1B media, which includes advanced DMEM/F-12 (Thermo Fisher Scientific, cat. 12634028), 10 mM HEPES (Thermo Fisher Scientific, cat. 15630080), 1X GlutaMAX supplement (Thermo Fisher Scientific, cat. 35050061), 0.1 mg/mL primocin (InvivoGen, cat. ant-pm-2), 10% defined fetal bovine serum, heat inactivated (HyClone Laboratories Inc., cat. SH30070.03HI), 50% L-WRN conditioned media (ATCC, cat. CRL-3276), 1.25 mM N-Acetyl-L-cysteine (Sigma-Aldrich, cat. A9165), 10 mM nicotinamide (Sigma-Aldrich, cat. N0636), 1X B-27 supplement (Thermo Fisher Scientific, cat. 17504044), 1X N-2 supplement (Thermo Fisher Scientific, cat. 17502048), 10 microM Y-27632 dihydrochloride (Tocris Bioscience, cat. 1254), and 50 ng/mL human EGF recombinant protein (Thermo Fisher Scientific, cat. PHG0311). The 485176-168-R4-J1-PDC line was cultured in Panc media, which includes all 6C/Colon 1B media components plus 100 ng/mL human FGF-10 (Thermo Fisher Scientific, cat. 100-26), 500 nM SB-431542 (Selleckchem, cat. S1067), and gastrin (Tocris, cat. 3006).
[…]

[1] = second compound 0.0316 µM, first compound 0.0316 µM
[2] = second compound 0.0316 µM, first compound 0.316 µM
[3] = second compound 0.1 µM, first compound 0.0316 µM
[4] = second compound 0.1 µM, first compound 0.316 µM
[5] = second compound 0.316 µM, first compound 0.0316 µM
[6] = second compound 0.316 µM, first compound 0.316 µM
[7] = second compound 1 µM, first compound 0.0316 µM
[8] = second compound 1 µM, first compound 0.316 µM
[9] = second compound 3.16 µM, first compound 0.0316 µM
[10] = second compound 3.16 µM, first compound 0.316 µM
[11] = second compound 10 µM, first compound 0.0316 µM
[12] = second compound 10 µM, first compound 0.316 µM
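Note: spheroids exposed to compounds for 7 days before readout.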

## Cc1cccc(N(C)C(=O)C2C(O)CCN2c2nc(C)cc(C(F)(F)F)c2C#N)c1 (centres undefined) + CN(C)c1ccc(Nc2c3ccc(NC(=O)CCN4CCCC4)cc3nc3cc(NC(=O)CCN4CCCC4)ccc23)cc1
Second compound 0.0316 µM
  IC50: > 10 µM
Second compound 0.1 µM
  IC50: > 10 µM
Second compound 0.316 µM
  IC50: > 10 µM
Second compound 1 µM
  IC50: > 10 µM
Second compound 3.16 µM
  IC50: > 10 µM
Second compound 10 µM
  IC50: 10 µM
[1]
  viability, T/C: 89.3%
Second compound 0.0316 µM, first compound 0.1 µM
  viability, T/C: 87.3%
[2]
  viability, T/C: 101%
Second compound 0.0316 µM, first compound 1 µM
  viability, T/C: 87.2%
Second compound 0.0316 µM, first compound 3.16 µM
  viability, T/C: 93.2%
Second compound 0.0316 µM, first compound 10 µM
  viability, T/C: 89.7%
[3]
  viability, T/C: 87.1%
Second compound 0.1 µM, first compound 0.1 µM
  viability, T/C: 93.3%
[4]
  viability, T/C: 85.1%
Second compound 0.1 µM, first compound 1 µM
  viability, T/C: 93.1%
Second compound 0.1 µM, first compound 3.16 µM
  viability, T/C: 95.2%
Second compound 0.1 µM, first compound 10 µM
  viability, T/C: 90.9%
[5]
  viability, T/C: 95.3%
Second compound 0.316 µM, first compound 0.1 µM
  viability, T/C: 79.1%
[6]
  viability, T/C: 94.8%
Second compound 0.316 µM, first compound 1 µM
  viability, T/C: 89.1%
Second compound 0.316 µM, first compound 3.16 µM
  viability, T/C: 106%
Second compound 0.316 µM, first compound 10 µM
  viability, T/C: 88.5%
[7]
  viability, T/C: 90.7%
Second compound 1 µM, first compound 0.1 µM
  viability, T/C: 82.5%
[8]
  viability, T/C: 76.6%
Second compound 1 µM, first compound 1 µM
  viability, T/C: 84.1%
Second compound 1 µM, first compound 3.16 µM
  viability, T/C: 96.7%
Second compound 1 µM, first compound 10 µM
  viability, T/C: 81.8%
[9]
  viability, T/C: 77%
Second compound 3.16 µM, first compound 0.1 µM
  viability, T/C: 71.2%
[10]
  viability, T/C: 85.1%
Second compound 3.16 µM, first compound 1 µM
  viability, T/C: 75.3%
Second compound 3.16 µM, first compound 3.16 µM
  viability, T/C: 80.1%
Second compound 3.16 µM, first compound 10 µM
  viability, T/C: 80.6%
[11]
  viability, T/C: 73.7%
Second compound 10 µM, first compound 0.1 µM
  viability, T/C: 79%
[12]
  viability, T/C: 69.9%
Second compound 10 µM, first compound 1 µM
  viability, T/C: 71.7%
Second compound 10 µM, first compound 3.16 µM
  viability, T/C: 62.8%
Second compound 10 µM, first compound 10 µM
  viability, T/C: 50%

## Cn1ncnc1[C@H]1c2n[nH]c(=O)c3cc(F)cc(c23)N[C@@H]1c1ccc(F)cc1 + Cc1[nH]c2ccc(F)cc2c1-c1nc2c3cccnc3c3ncccc3c2[nH]1
Second compound 0.0316 µM
  IC50: > 0.316 µM
Second compound 0.1 µM
  IC50: > 0.316 µM
Second compound 0.316 µM
  IC50: > 0.316 µM
Second compound 1 µM
  IC50: > 0.316 µM
Second compound 3.16 µM
  IC50: < 0.000999 µM
Second compound 10 µM
  IC50: < 0.000999 µM
Second compound 0.0316 µM, first compound 0.000999 µM
  viability, T/C: 105%
Second compound 0.0316 µM, first compound 0.00316 µM
  viability, T/C: 87.4%
Second compound 0.0316 µM, first compound 0.00999 µM
  viability, T/C: 92%
[1]
  viability, T/C: 95.9%
Second compound 0.0316 µM, first compound 0.0999 µM
  viability, T/C: 81.6%
[2]
  viability, T/C: 90.3%
Second compound 0.1 µM, first compound 0.000999 µM
  viability, T/C: 110%
Second compound 0.1 µM, first compound 0.00316 µM
  viability, T/C: 102%
Second compound 0.1 µM, first compound 0.00999 µM
  viability, T/C: 99.4%
[3]
  viability, T/C: 83.9%
Second compound 0.1 µM, first compound 0.0999 µM
  viability, T/C: 94.5%
[4]
  viability, T/C: 88.2%
Second compound 0.316 µM, first compound 0.000999 µM
  viability, T/C: 94.7%
Second compound 0.316 µM, first compound 0.00316 µM
  viability, T/C: 97.9%
Second compound 0.316 µM, first compound 0.00999 µM
  viability, T/C: 95.1%
[5]
  viability, T/C: 85.5%
Second compound 0.316 µM, first compound 0.0999 µM
  viability, T/C: 84%
[6]
  viability, T/C: 74.7%
Second compound 1 µM, first compound 0.000999 µM
  viability, T/C: 75.4%
Second compound 1 µM, first compound 0.00316 µM
  viability, T/C: 91.9%
Second compound 1 µM, first compound 0.00999 µM
  viability, T/C: 91.2%
[7]
  viability, T/C: 81.9%
Second compound 1 µM, first compound 0.0999 µM
  viability, T/C: 82.1%
[8]
  viability, T/C: 65.5%
Second compound 3.16 µM, first compound 0.000999 µM
  viability, T/C: 33.3%
Second compound 3.16 µM, first compound 0.00316 µM
  viability, T/C: 33.7%
Second compound 3.16 µM, first compound 0.00999 µM
  viability, T/C: 44.6%
[9]
  viability, T/C: 22.8%
Second compound 3.16 µM, first compound 0.0999 µM
  viability, T/C: 28.6%
[10]
  viability, T/C: 43.8%
Second compound 10 µM, first compound 0.000999 µM
  viability, T/C: 35.3%
Second compound 10 µM, first compound 0.00316 µM
  viability, T/C: 37.6%
Second compound 10 µM, first compound 0.00999 µM
  viability, T/C: 41.8%
[11]
  viability, T/C: 28.7%
Second compound 10 µM, first compound 0.0999 µM
  viability, T/C: 37.1%
[12]
  viability, T/C: 31.5%
